Results published in ChEMBL document CHEMBL1201862, “PubChem BioAssay data set” (2004).
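Growth conditions: 96-well plates. Treatment: test compound, 48 hours, 5 concentrations. Analysis: linear interpolation between bracketing concentrations; unreached endpoints set to highest concentration. GI50 = concentration required for 50% inhibition of growth.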 Active and inactive are the calls of the source. No stated cut-off is given here; in the data, active = GI50 up to about 1.1 µM and inactive = higher.

Key:
Experiment in all cases: NCI anticancer screen, dose series, 48 h
HCC 2998 = test system: HCC 2998
SK-MEL-2 = test system: SK-MEL-2
HT-29 = test system: HT-29
K562 = test system: K562
IGROV-1 = test system: IGROV-1
KM12 = test system: KM12
CAKI-1 = test system: CAKI-1
LOX IMVI = test system: LOX IMVI
SK-MEL-5 = test system: SK-MEL-5
MDA-MB-231 = test system: MDA-MB-231
U-251 = test system: U-251
NCI-H23 = test system: NCI-H23
A498 = test system: A498
HCT-116 = test system: HCT-116
HCT-15 = test system: HCT-15
Hs-578T = test system: Hs-578T
DU-145 = test system: DU-145
786-0 = test system: 786-0
PC-3 = test system: PC-3
OVCAR-3 = test system: OVCAR-3

SMILES	GI50 (HCC 2998)	GI50 (SK-MEL-2)	GI50 (HT-29)	GI50 (K562)	GI50 (IGROV-1)	GI50 (KM12)	GI50 (CAKI-1)	GI50 (LOX IMVI)	GI50 (SK-MEL-5)	GI50 (MDA-MB-231)	GI50 (U-251)	GI50 (NCI-H23)	GI50 (A498)	GI50 (HCT-116)	GI50 (HCT-15)	GI50 (Hs-578T)	GI50 (DU-145)	GI50 (786-0)	GI50 (PC-3)	GI50 (OVCAR-3)
COC1C(OC(=O)c2ccc(C)[nH]2)C(O)C(Oc2ccc3c(O)c(NC(=O)c4ccc(O)c(CC=C(C)C)c4)c(=O)oc3c2Cl)OC1(C)C (stereo not given)	18.1 µM (inactive)	13.2 µM (inactive)	15 µM (inactive)	29.6 µM (inactive)	15.5 µM (inactive)	12.5 µM (inactive)	18.7 µM (inactive)	18.1 µM (inactive)	19.7 µM (inactive)	21.1 µM (inactive)	12.8 µM (inactive)	20.1 µM (inactive)	17.9 µM (inactive)	16.4 µM (inactive)	18.5 µM	16.1 µM (inactive)	31 µM (inactive)	15.8 µM (inactive)	12.9 µM (inactive)	18.7 µM (inactive)
COc1ccc(-c2cc3c(nn2)-c2ccccc2C3=O)cc1	> 10 µM (inactive)	> 10 µM (inactive)	> 10 µM (inactive)	> 10 µM (inactive)	> 10 µM (inactive)	> 10 µM (inactive)	> 10 µM (inactive)	> 10 µM (inactive)	> 10 µM (inactive)	> 10 µM (inactive)	> 10 µM (inactive)	> 10 µM (inactive)	> 10 µM (inactive)	7.71 µM (inactive)	> 10 µM	> 10 µM (inactive)	> 10 µM (inactive)	> 10 µM (inactive)	> 10 µM (inactive)	> 10 µM (inactive)
N=C(CC/C(N)=N/O)NO	> 100 µM (inactive)	> 100 µM (inactive)	> 100 µM (inactive)	> 100 µM (inactive)	> 100 µM (inactive)	> 100 µM (inactive)	> 100 µM (inactive)	> 100 µM (inactive)	> 100 µM (inactive)	> 100 µM (inactive)	> 100 µM (inactive)	> 100 µM (inactive)	> 100 µM (inactive)	> 100 µM (inactive)	> 100 µM	> 100 µM (inactive)	> 100 µM (inactive)	> 100 µM (inactive)	> 100 µM (inactive)	> 100 µM (inactive)
N#Cc1c(Nc2ccccc2)[n+]([O-])c2ccc(Cl)cc2[n+]1[O-]	4.06 µM (inactive)	18 µM (inactive)	3.05 µM (inactive)	3.03 µM (inactive)	1.78 µM (inactive)	4.36 µM (inactive)	5.09 µM (inactive)	3.1 µM (inactive)	2.09 µM (inactive)	9.53 µM (inactive)	3.15 µM (inactive)	5.08 µM (inactive)	7.69 µM (inactive)	3.88 µM (inactive)	1.89 µM	16.6 µM (inactive)	16.1 µM (inactive)	5.25 µM (inactive)	3.36 µM (inactive)	2.99 µM (inactive)
Nc1nc(Cl)cc(NCC2(O)CC(CO)C2)n1 (stereo not given)	> 100 µM (inactive)	> 100 µM (inactive)	> 100 µM (inactive)	> 100 µM (inactive)	> 100 µM (inactive)	> 100 µM (inactive)	> 100 µM (inactive)	> 100 µM (inactive)	> 100 µM (inactive)	> 100 µM (inactive)	> 100 µM (inactive)	> 100 µM (inactive)	> 100 µM (inactive)	> 100 µM (inactive)	> 100 µM	> 100 µM (inactive)	> 100 µM (inactive)	> 100 µM (inactive)	> 100 µM (inactive)	> 100 µM (inactive)
C[C@]12CC[C@@H]3c4ccc(OC(=O)c5ccccc5)cc4CC[C@H]3[C@@H]1CC[C@@H]2Oc1c2ccccc2nc2ccccc12	7.05 µM (inactive)	16.2 µM (inactive)	5.83 µM (inactive)	6.38 µM (inactive)	12.5 µM (inactive)	14 µM (inactive)	9.73 µM (inactive)	7.85 µM (inactive)	8.61 µM (inactive)	11.5 µM (inactive)	8.41 µM (inactive)	12.4 µM (inactive)	17.4 µM (inactive)	7.8 µM (inactive)	9.73 µM	5.5 µM (inactive)	9.23 µM (inactive)	7.66 µM (inactive)	8.93 µM (inactive)	7.66 µM (inactive)
CC1(C)C=C(/C=C2/N(S(=O)(=O)C(F)(F)F)C(/C=C3/N(S(=O)(=O)C(F)(F)F)C(C)(C#N)CC3(C)C)=CC2(C)C)N=C1/C=C1/CC(C)(C)C(=O)N1 (stereo not given)	35.2 µM (inactive)	29.5 µM (inactive)	16.8 µM (inactive)	3.11 µM (inactive)	7.24 µM (inactive)	5.77 µM (inactive)	11.4 µM (inactive)	17.9 µM (inactive)	13.8 µM (inactive)	23.1 µM (inactive)	24.7 µM (inactive)	18.8 µM (inactive)	55.6 µM (inactive)	3.73 µM (inactive)	6.05 µM	16.2 µM (inactive)	33.9 µM (inactive)	20.7 µM (inactive)	5.71 µM (inactive)	7.62 µM (inactive)
COc1cc([C@@H]2c3cc4c(cc3[C@@H](c3c(O)cc(O)c5c3O[C@H](c3ccc(O)c(O)c3)[C@H](OC(=O)c3cc(O)c(O)c(O)c3)C5)[C@H]3COC(=O)[C@H]23)OCO4)cc(OC)c1OC	20.2 µM (inactive)	11.7 µM (inactive)	17.6 µM (inactive)	4.78 µM (inactive)	27 µM (inactive)	3.88 µM (inactive)	13.8 µM (inactive)	5.77 µM (inactive)	7.38 µM (inactive)	4.52 µM (inactive)	6.12 µM (inactive)	38.5 µM (inactive)	3.74 µM (inactive)	5 µM (inactive)	18.7 µM	4.07 µM (inactive)	22.7 µM (inactive)	12.6 µM (inactive)	5.28 µM (inactive)	4.01 µM (inactive)
Cc1ccc(S(=O)(=O)NC(=O)NCc2ccc(S(N)(=O)=O)cc2)cc1	> 100 µM (inactive)	> 100 µM (inactive)	> 100 µM (inactive)	> 100 µM (inactive)	> 100 µM (inactive)	> 100 µM (inactive)	> 100 µM (inactive)	> 100 µM (inactive)	> 100 µM (inactive)	> 100 µM (inactive)	> 100 µM (inactive)	> 100 µM (inactive)	> 100 µM (inactive)	> 100 µM (inactive)	> 100 µM	> 100 µM (inactive)	> 100 µM (inactive)	> 100 µM (inactive)	> 100 µM (inactive)	> 100 µM (inactive)
COC(=O)/C=C(/C(=O)OC)c1cc2ccc3c([nH]c4ccccc43)c(C)c-2c1	3.92 µM (inactive)	7.5 µM (inactive)	2.78 µM (inactive)	2.54 µM (inactive)	2.74 µM (inactive)	3.73 µM (inactive)	6.32 µM (inactive)	3.66 µM (inactive)	2.88 µM (inactive)	3.8 µM (inactive)	3.85 µM (inactive)	3.96 µM (inactive)	8.04 µM (inactive)	4.49 µM (inactive)	3.94 µM	3.41 µM (inactive)	9.73 µM (inactive)	4.78 µM (inactive)	2.68 µM (inactive)	3.4 µM (inactive)
COc1cc2oc(=O)cc(C)c2cc1[N+](=O)[O-]	14.6 µM (inactive)	12.4 µM (inactive)	23.1 µM (inactive)	22.4 µM (inactive)	38.9 µM (inactive)	25.7 µM (inactive)	13.8 µM (inactive)	12.2 µM (inactive)	27.3 µM (inactive)	22.4 µM (inactive)	37.4 µM (inactive)	21.3 µM (inactive)	28.4 µM (inactive)	15.3 µM (inactive)	17.7 µM	28.2 µM (inactive)	33.1 µM (inactive)	17.5 µM (inactive)	27.9 µM (inactive)	25.4 µM (inactive)
Nc1c(Cl)ncnc1N[C@@H]1C[C@H]1CO	> 100 µM (inactive)	> 100 µM (inactive)	> 100 µM (inactive)	> 100 µM (inactive)	> 100 µM (inactive)	> 100 µM (inactive)	> 100 µM (inactive)	> 100 µM (inactive)	> 100 µM (inactive)	> 100 µM (inactive)	> 100 µM (inactive)	> 100 µM (inactive)	> 100 µM (inactive)	> 100 µM (inactive)	> 100 µM	> 100 µM (inactive)	> 100 µM (inactive)	> 100 µM (inactive)	> 100 µM (inactive)	> 100 µM (inactive)
O=C(O)C12C3C4(C(=O)O)C1C1(C(=O)O)C2C3(C(=O)O)C41 (stereo not given)	> 100 µM (inactive)	> 100 µM (inactive)	> 100 µM (inactive)	< 0.01 µM (active)	> 100 µM (inactive)	> 100 µM (inactive)	> 100 µM (inactive)	> 100 µM (inactive)	> 100 µM (inactive)	> 100 µM (inactive)	> 100 µM (inactive)	> 100 µM (inactive)	> 100 µM (inactive)	> 100 µM (inactive)	> 100 µM	> 100 µM (inactive)	> 100 µM (inactive)	> 100 µM (inactive)	> 100 µM (inactive)	> 100 µM (inactive)
Cc1ccc(Nc2n[nH]c(=S)s2)cc1C	70.6 µM (inactive)	> 100 µM (inactive)	57.4 µM (inactive)	64.1 µM (inactive)	> 100 µM (inactive)	78.5 µM (inactive)	> 100 µM (inactive)	> 100 µM (inactive)	68.2 µM (inactive)	> 100 µM (inactive)	92.7 µM (inactive)	> 100 µM (inactive)	58.7 µM (inactive)	> 100 µM (inactive)	60.4 µM	> 100 µM (inactive)	> 100 µM (inactive)	> 100 µM (inactive)	> 100 µM (inactive)	> 100 µM (inactive)
